The test system of test [1] is rabbit aorta smooth muscle cells. Nature of the test: cGMP levels in rabbit aorta smooth muscle cells. It is filed as cell-based. The following applies: for guanosine 3′,5′-cyclic monophosphate levels: 0.1, 1.0, 10, 100 μM, in the presence of IBMX (100 μM).
The test system of test [2] is intracavernous pressure of rabbits. The following applies: for DT, duration of tumescence / ΔICP, peak increased intracavernous pressure: n=8.
Procedure: Measurement of intracavernous pressure Male rabbits were used for the investigation. After sedation with an intramuscular injection of ketamine (10 mg kg^−1), the rabbits were anaesthetized with intraperitoneal pentobarbital (30 mg kg^−1) and maintained with 10 mg kg^−1 if needed. The animals breathed spontaneously. The rabbits were then placed in the supine position, and the body temperature was maintained at 37° C. The femoral artery was cannulated for continuous monitoring of systemic arterial pressure (SAP) and heart rate (HR) via a pressure transducer (Spectramed, Model P10EZ, U.S.A.). Under sterile conditions, the skin overlying the penis was incised and the corpora cavernosum was exposed at the root of the penis. A 25-gunge needle was inserted into the corpus cavernosum smooth muscles for pressure recording. The needle was connected to a three-way stopcock, thus permitting the intracavernous injection of the drugs. The tube was filled with heparinized saline (50 IU 2 h^−1) to prevent clotting.
Normal saline in increasing volumes (0.05, 0.1, 0.2 ml) was injected in four rabbits as a control group. […] In order to minimize the effect of the previous drug, the cavernous body was flushed with 0.2 ml normal saline before each injection and the time interval between each injection was at least 1.5 h.
Measurement of intracavernous pressure Male rabbits were used for the investigation. After sedation with an intramuscular injection of ketamine (10 mg kg^−1), the rabbits were anaesthetized with intraperitoneal pentobarbital (30 mg kg^−1) and maintained with 10 mg kg^−1 if needed. The animals breathed spontaneously. The rabbits were then placed in the supine position, and the body temperature was maintained at 37° C. The femoral artery was cannulated for continuous monitoring of systemic arterial pressure (SAP) and heart rate (HR) via a pressure transducer (Spectramed, Model P10EZ, U.S.A.). Under sterile conditions, the skin overlying the penis was incised and the corpora cavernosum was exposed at the root of the penis. A 25-gunge needle was inserted into the CCSMs for pressure recording. The needle was connected to a three-way stopcock, thus permitting the intracavernous injection of the drugs. The tube was filled with heparinized saline (50 IU 2 h^−1) to prevent clotting.
Test [3] concerns rabbit corpus cavernosum smooth muscle cells. The test is described as follows: Intracellular cGMP content in rabbit corpus cavernosum smooth muscle cells. The test is classed as cell-based. The following applies: for guanosine 3′,5′-cyclic monophosphate levels: 0.1, 1.0, 10, 100 μM. As for the experimental part:
(§1) Culture of rabbit corpus cavernosum smooth muscle cells Rabbit corpus cavernosum smooth muscles were obtained as sterile surgical specimens, the tissue was washed and cut into 1 to 2 mm pieces and placed into culture dishes with Dulbecco's modified Eagle's medium (DMEM) containing 20% fetal bovine serum (FBS), penicillin (100 U ml^−1), streptomycin (100 U ml^−1) and 2 mM Glutamine. After explants attached to the culture dish, usually 1 to 2 days, DMEM (Dulbecco's modified Eagle's medium) supplement with 10% FBS, penicillin, streptomycin, and glutamine were added. Smooth muscle cells migrated out from the explants in 3–5 days. At this time, the explants were removed, and cells were allowed to achieve confluence. Cells were detached using 0.05% trypsin, 0.02% EDTA at 37° C. for 5 minutes to establish secondary cultures. Cultures were maintained for no more than 4 passages. Cellular homogeneity was further confirmed by the presence of smooth muscle specific α-myosin and α-actin immunoreactivity. Indirect immunofluorescence staining for a variety of antigens was carried out by first plating the cells on chamber slides fixing the cells in 3.7% formaldehyde-phosphate buffered saline for 10 minutes and permeabilizing the cells with phosphate buffered saline 0.1% Triton X-100. Cells were then stained with either a mouse monoclonal antibody directed against the amino terminal 10 amino acids of α-smooth muscle actin and α-myosin (Moreland R. B. et al., J Urol., 153, 826–834, 1995).
Measurement of intracellular guanosine 3′,5′-cyclic monophosphate content Intracellular cGMP concentrations in rabbit corpus cavernosum smooth muscle cells were assayed as our previously described (Wu et al., 2001). In brief, cells were finally grown in 24-well plates (10^5 cells well^−1). […] Incubation was terminated by the addition of 6% trichloroacetic acid (TCA). Cell suspensions were sonicated and then centrifuged at 2500 g for 15 min at 4° C. Then, the supernatants were lyophilized and cGMP of each sample was determined using a commercially available radioimmunoassay kits (Amersham Pharmacia Biotech, Buckinghamshire, England).
as §1, with “Rabbit CCSMs (corpus” for “Rabbit corpus”, “smooth muscles)” for “smooth muscles”, “DMEM” for “DMEM (Dulbecco's modified Eagle's medium)”, “(Moreland” for “(Moreland R. B.”, “al.,” for “al., J Urol., 153, 826–834,”
Measurement of intracellular cyclic GMP content Intracellular cGMP concentrations in rabbit CCSM cells were assayed as our previously described (Wu et al., 2001). In brief, cells were finally grown in 24-well plates (10^5 cells well^−1). […] Incubation was terminated by the addition of 6% trichloroacetic acid (TCA). Cell suspensions were sonicated and then centrifuged at 2500 g for 15 min at 4° C. […]

For the next test, the system named is rabbit aortic rings. Nature of the test: Relaxation of phenylephrine-precontracted rabbit aortic rings. The test is classed as cell-based.
In test [4] the test system is rabbit corpus cavernosum smooth muscle. Nature of the test: Rabbit corpus cavernosum smooth muscle relaxation, organ bath. It is filed as cell-based.
Excerpt: (§2) Disruption of endothelium The endothelium lining the lacunar spaces of rabbit corpus cavernosum was disrupted and/or removed by detergent treatment using a modification of a protocol for blood vessels, described elsewhere (kim N. et al., J. Clin. Invest., 88, 112–118, 1991). The intact, isolated penis was placed in a tray containing chilled physiological salt solution (PSS). A 21-guage minicatheter was inserted into each corporal body at the proximal end of the penis. A third minicatheter was inserted into the distal end, below the glans penis, where the right and left corpora communicate. While the distal and one proximal minicatheter were clamped, 3 ml of CHAPS (wt vol.^−) in saline was infused into the remaining proximal catheter. After a short interval (˜20 s), the clamped minicatheters were opened and the preparation was washed by infusion of saline. The corpora cavernosa were then removed and tested for endothelial integrity.
Tissue procurement and organ bath experiments Male rabbits were killed with pentobarbital and their penises excised rapidly and cut longitudinally into equal strips to give 3–6 segments. These segments were incubated in Kerbs-bicarbontate solution (NaCl, 118 mM; NaHCO3, 25 mM; KCl, 4.7 mM; KH2PO4, 1.2 mM; MgSO4, 1.2 mM; glucose, 11 mM; CaCl2, 2.5 mM; pH 7.3–7.4) maintained at 37° C. and aerated with 95% O2 and 5% CO2. Isometric tension was recorded with a force displacement transducer (UGO BASILE, Model 7004, Italy). Rabbit corpus cavernosum smooth muscles were stretched to a resting tension of 2 g and then contracted with phenylephrine (PE, 10 μM). Tissues were also treated with guanethidine (10 μM) to block contractions caused by noradrenaline, released from adrenergic neuron, and treated with atropine (1 μM) to prevent muscarinic effects caused by acetylcholine. When the stable constriction to phenylephrine was reached, concentration-response curves to KMUP-1 (0.001–10 μM) were constructed. Data were expressed as a percentage of the maximum contractile response to phenylephrine. To examine the possible action mechanisms of KMUP-1, the rabbit corpus cavernosum smooth muscles were pretreated with sGC (soluble guanylyl cyclase) inhibitors ODQ (1 μM), a NOS (nitric oxide synthase) inhibitor L-NAME (100 μM), a K^+ channel blocker Tetraethylammonium (TEA, 10 mM), a KATP channel blocker glibenclamide (1 μM), a voltage-dependent K^+ channel blocker 4-AP (100 μM) and Ca^2+-dpendent K^+ channel blockers apamin (1 μM) and charybdotoxin (0.1 μM) for 30 min prior to the addition of KMUP-1. To observe whether the rabbits corpus cavernosum smooth muscle relaxation of KMUP-1 are affected by a nonselective PDE (phosphodiesterase) inhibitor, we investigated the action of KMUP-1 in the presence of IBMX (0.5 μM). In another experiment, rabbit corpus cavernosum smooth muscles were preconstricted with 60 mM KCl. The KCl solution was prepared by substituting NaCl with KCl (60 mM) in an equimolar amount.
as §2, with “(kim” for “(kim N.”, “al.,” for “al., J. Clin. Invest., 88, 112–118,”, “vol.^−1)” for “vol.^−)”, “integrity. […]” for “integrity.”

The subject of test [5] is PDE (phosphodiesterase) in human platelets. The test is described as follows: Phosphodiesterase assay, soluble PDE from human platelets, cyclic GMP substrate. It is filed as biochemical. The following applies: at 100 μM, n=3.
Procedure: Phosphodiesterase assay. Human platelets were isolated from whole blood using 50 mM Tris-HCl containg 5 mM MgCl2 (pH 7.5) and centrifuged to prepare platelet rich plasma. Washed human platelets were resuspended in 50 mM Tris-HCl containg 5 mM MgCl2 (pH 7.5). Platelets were then disrupted by sonicatio, and soluble PDE preparation was obtained by ultracentrifugation 105000 g for 60 min (4° C). […] After 20 min at 37° C., the samples were heated to 100° C. for 2 min. Ophiophagus Hannah snake venom (10 mg/ml, 10 μl) was then added and incubated at 37 C. for 10 min to convert the 5-GMP to the unchanged nucleosides, guanosine. An ion-exchange resin (200 μl) was added to bind all uncoverted cyclic GMP. After centrifuging, the supernatant was removed for determination in a liquid scintillation counter.
The mark [6] stands for this setting: 0.2 mg/kg intracavernous injection.
[7] abbreviates: 0.4 mg/kg intracavernous injection.
Setting [8] is: 0.6 mg/kg intracavernous injection.
[9] abbreviates: in the presence of IBMX (100 μM).
Where [10] appears, read: in the presence of IBMX (0.5 μM).
Where [11] appears, read: pretreatments with methylene blue (100 μM) and ODQ (10 μM).

Each structure is given as a SMILES string. Like-named read-outs stand apart in the source and are kept apart here.

The results in this text go back to patent US6979687B1, “Theophylline-based soluble guanylyl cyclase activators KMUP-1 analogues enhanced cyclic GMP and K+ channel activities on rabbit corpus cavernosum smooth muscle and intercavernous pressure activities” (Cho-Jan Liang, priority 2002, dated 2005).

`CCCc1nn(C)c2c(=O)[nH]c(-c3cc(S(=O)(=O)N4CCN(C)CC4)ccc3OCC)nc12` [sildenafil, reference compound]: the “guanosine 3′,5′-cyclic monophosphate levels” value in test [1] and in test [3] (setting [9]) was “significant elevation” in each case. In addition, the “DT, duration of tumescence” value in test [2] (setting [6]) was found to be 19 ± 3.32 min; in test [2] (setting [7]), 24 ± 3.45 min; in test [2] (setting [8]), 28 ± 4.59 min. Besides, the “ΔICP, peak increased intracavernous pressure” value in test [2] (setting [6]) is on record as 28 ± 3.21 mmHg; in test [2] (setting [7]), 32 ± 4.05 mmHg; in test [2] (setting [8]) it was 40 ± 11.05 mmHg. Further, in test [2] (0.2, 0.4, 0.6 mg kg−1 intracavernous), the “intracavernous pressure, dose dependence” value is “dose-dependent elevations”. Also, in test [3] (0.01–10 μM, in the presence of IBMX (100 μM)), the cGMP levels entry is “increased the cGMP levels”.

Regarding `COc1ccccc1N1CCN(CCn2cnc3c2c(=O)n(C)c(=O)n3C)CC1` [KMUP-2, 7-[2-[4-(2-methoxyphenyl)piperazinyl]-ethyl]-1,3-dimethylxanthine], the “−log EC50 of relaxation in aortic rings” value stood at 5.69±0.02 with rabbit aortic rings (KMUP-2 (0.01, 0.05, 0.1 μM) alone) and 6.61±0.12 in the test with rabbit aortic rings (setting [10]). Further, the “guanosine 3′,5′-cyclic monophosphate levels” value in test [1] and in test [3] (setting [9]) was “significantly increased” throughout. For the same compound, the “cGMP levels after methylene blue and ODQ pretreatments” value in test [1] (setting [11]) and in test [3] (setting [11]) was “significantly inhibited” in each case. In addition, in test [4], the “relaxant activities in rabbit CCSMs” value is “concentration-dependent relaxant activities”. Moreover, in test [4] (combination with IBMX), the “effect of combination with IBMX on CCSMs relaxations” value was “additive effect”. Besides, the “−log EC50 of relaxation” value in test [4] (compound alone, IBMX additive experiment (FIG. 6)) was 7.58±0.02; in test [4] (setting [10]) it was 8.37±0.03. Further, the “inhibition of PDE activity” value in test [5] amounted to 21±2.1%.
